# Source: patent US20140163012A1, “PYRIDO-/AZEPINO-BENZOFURAN AND PYRIDO-/AZEPINO-BENZOTHIOPHENE MCH-1 ANTAGONISTS, METHODS OF MAKING, AND USE THEREOF” (Albany Molecular Research, Inc., priority 2012, published 2014)
# Counter-ions that a name gives are not always drawn.
# Biological target: human MCH-1 receptor (Homo sapiens, UniProt Q99705)
# Assay: Binding assay for human melanin-concentrating hormone (MCH-1) receptor, radioligand displacement on CHO-K1 cell membranes
# Sequence of human MCH-1 receptor (Q99705 whole entry): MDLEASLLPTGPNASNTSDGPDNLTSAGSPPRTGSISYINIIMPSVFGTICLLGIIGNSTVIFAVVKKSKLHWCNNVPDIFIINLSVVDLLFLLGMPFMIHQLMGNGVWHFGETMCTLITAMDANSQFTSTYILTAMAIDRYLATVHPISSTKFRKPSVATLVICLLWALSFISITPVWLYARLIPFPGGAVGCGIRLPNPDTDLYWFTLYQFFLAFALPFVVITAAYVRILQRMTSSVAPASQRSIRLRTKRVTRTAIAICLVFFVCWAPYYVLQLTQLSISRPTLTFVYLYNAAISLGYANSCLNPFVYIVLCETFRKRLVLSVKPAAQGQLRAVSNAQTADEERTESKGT
row,Structure (SMILES),Ki [nM]
1,"O=c1cc(OCc2ccccc2)ccn1-c1ccc2c3c(oc2c1)CNCC3 [Example 2, 4-(Benzyloxy)-1-(1,2,3,4-tetrahydrobenzofuro[2,3-c]pyridin-7-yl)pyridin-2(1H)-one hydrochloride]",23
2,"O=c1cc(OCc2ccc(F)cn2)ccn1-c1ccc2c3c(oc2c1)CNCC3 [Example 3, 4-((5-Fluoropyridin-2-yl)methoxy)-1-(1,2,3,4-tetrahydrobenzofuro[2,3-c]pyridin-7-yl)pyridin-2(1H)-one hydrochloride]",59
3,"O=c1cc(-c2ccc(C(F)(F)F)nc2)ccn1-c1ccc2c3c(oc2c1)CNCC3 [Example 4, 1′-(1,2,3,4-Tetrahydrobenzofuro[2,3-c]pyridin-7-yl)-6-(trifluoromethyl)-[3,4′-bipyridin]-2′(1′H)-one hydrochloride]",1310
4,"O=c1cc(-c2ccc(C(F)(F)F)nc2)ccn1-c1ccc2c3c(oc2c1)CCNC3 [Example 5, 1′-(1,2,3,4-Tetrahydrobenzofuro[3,2-c]pyridin-7-yl)-6-(trifluoromethyl)-[3,4′-bipyridin]-2′(1′H)-one hydrochloride]",56
5,"O=c1cc(OCc2ccccc2)ccn1-c1ccc2c3c(oc2c1)CCNC3 [Example 6, 4-(Benzyloxy)-1-(1,2,3,4-tetrahydrobenzofuro[3,2-c]pyridin-7-yl)pyridin-2(1H)-one hydrochloride]",3.3
6,"O=c1cc(OCc2ccc(F)cn2)ccn1-c1ccc2c3c(oc2c1)CCNC3 [Example 7, 4-((5-Fluoropyridin-2-yl)methoxy)-1-(1,2,3,4-tetrahydrobenzofuro[3,2-c]pyridin-7-yl)pyridin-2(1H)-one hydrochloride]",7.3
7,"C[C@@H]1Cc2oc3cc(-n4ccc(OCc5ccccn5)cc4=O)ccc3c2CN1 [Example 8, (R)-1-(3-Methyl-1,2,3,4-tetrahydrobenzofuro[3,2-c]pyridin-7-yl)-4-(pyridin-2-ylmethoxy)pyridin-2(1H)-one hydrochloride]",57
8,"C[C@@H]1Cc2oc3cc(-n4ccc(OCc5ccc(F)cn5)cc4=O)ccc3c2CN1 [Example 9, (R)-4-((5-Fluoropyridin-2-yl)methoxy)-1-(3-methyl-1,2,3,4-tetrahydrobenzofuro[3,2-c]pyridin-7-yl)pyridin-2(1H)-one]",10
9,"O=c1cc(OCc2ccc(Cl)cn2)ccn1-c1ccc2c3c(oc2c1)CCNC3 [Example 10, 4-((5-Chloropyridin-2-yl)methoxy)-1-(1,2,3,4-tetrahydrobenzofuro[3,2-c]pyridin-7-yl)pyridin-2(1H)-one hydrochloride]",3.3
10,"O=c1cc(-c2ccc(C(F)(F)F)cn2)ccn1-c1ccc2c3c(oc2c1)CCNC3 [Example 11, 1′-(1,2,3,4-Tetrahydrobenzofuro[3,2-c]pyridin-7-yl)-5-(trifluoromethyl)-[2,4′-bipyridin]-2′(1′H)-one hydrochloride]",166
11,"O=c1cc(-c2ccc(C(F)(F)F)cn2)ccn1-c1ccc2c3c(sc2c1)CNCC3 [Example 12, 1-(1,2,3,4-Tetrahydrobenzothieno[2,3-c]pyridin-7-yl)-4-(5-(trifluoromethyl)pyridin-2-yl)pyridin-2(1H)-one hydrochloride]",93
12,"O=c1cc(OCc2ccc(Cl)cn2)ccn1-c1ccc2c3c(sc2c1)CNCC3 [Example 13, 4-((5-Chloropyridin-2-yl)methoxy)-1-(1,2,3,4-tetrahydrobenzothieno[2,3-c]pyridin-7-yl)pyridin-2(1H)-one hydrochloride]",3.1
13,"O=c1cc(OCc2ccc(F)cn2)ccn1-c1ccc2c3c(sc2c1)CNCC3 [Example 14, 4-((5-Fluoropyridin-2-yl)methoxy)-1-(1,2,3,4-tetrahydrobenzothieno[2,3-c]pyridin-7-yl)pyridin-2(1H)-one hydrochloride]",6.2
14,"O=c1cc(OCc2ccccc2)ccn1-c1ccc2c3c(sc2c1)CNCC3 [Example 15, 4-(Benzyloxy)-1-(1,2,3,4-tetrahydrobenzothieno[2,3-c]pyridin-7-yl)pyridin-2(1H)-one]",4
15,"O=c1cc(-c2ccc(C(F)(F)F)cn2)ccn1-c1ccc2c3c(sc2c1)CNCCC3 [Example 17, 1-(2,3,4,5-Tetrahydro-1H-benzothieno[2,3-c]azepin-8-yl)-4-(5-(trifluoromethyl)pyridin-2-yl)pyridin-2(1H)-one]",927
16,"O=c1cc(OCc2ccc(F)cn2)ccn1-c1ccc2c3c(sc2c1)CNCCC3 [Example 18, 4-((5-Fluoropyridin-2-yl)methoxy)-1-(2,3,4,5-tetrahydro-1H-benzothieno[2,3-c]azepin-8-yl)pyridin-2(1H)-one]",12
17,"O=c1cc(OCc2ccccc2)ccn1-c1ccc2c3c(sc2c1)CNCCC3 [Example 19, 4-(Benzyloxy)-1-(2,3,4,5-tetrahydro-1H-benzothieno[2,3-c]azepin-8-yl)pyridin-2(1H)-one]",8.2
18,"O=c1cc(OCc2ccc(Cl)cn2)ccn1-c1ccc2c3c(sc2c1)CCNCC3 [Example 20, 4-((5-Chloropyridin-2-yl)methoxy)-1-(2,3,4,5-tetrahydro-1H-benzothieno[2,3-d]azepin-8-yl)pyridin-2(1H)-one]",3.8
19,"O=c1cc(OCc2ccc(F)cn2)ccn1-c1ccc2c3c(sc2c1)CCNCC3 [Example 21, 4-((5-Fluoropyridin-2-yl)methoxy)-1-(2,3,4,5-tetrahydro-1H-benzothieno[2,3-d]azepin-8-yl)pyridin-2(1H)-one]",3.8
20,"O=c1cc(OCc2ccccc2)ccn1-c1ccc2c3c(sc2c1)CCNCC3 [Example 22, 4-(Benzyloxy)-1-(2,3,4,5-tetrahydro-1H-benzothieno[2,3-d]azepin-8-yl)pyridin-2(1H)-one]",4.4
21,"CN1CCc2oc3cc(-n4ccc(OCc5ccc(F)cn5)cc4=O)ccc3c2C1 [Example 23, 4-((5-Fluoropyridin-2-yl)methoxy)-1-(2-methyl-1,2,3,4-tetrahydrobenzofuro[3,2-c]pyridin-7-yl)pyridin-2(1H)-one hydrochloride]",11
22,"CCN1CCc2oc3cc(-n4ccc(OCc5ccc(F)cn5)cc4=O)ccc3c2C1 [Example 24, 1-(2-Ethyl-1,2,3,4-tetrahydrobenzofuro[3,2-c]pyridin-7-yl)-4-((5-fluoropyridin-2-yl)methoxy)pyridin-2(1H)-one]",13
23,"CC(=O)N1CCc2oc3cc(-n4ccc(OCc5ccccc5)cc4=O)ccc3c2C1 [Example 25, 1-(2-Acetyl-1,2,3,4-tetrahydrobenzofuro[3,2-c]pyridin-7-yl)-4-(benzyloxy)pyridin-2(1H)-one]",23
24,"CCN1CCc2oc3cc(-n4ccc(OCc5ccccc5)cc4=O)ccc3c2C1 [Example 26, 4-(Benzyloxy)-1-(2-ethyl-1,2,3,4-tetrahydrobenzofuro[3,2-c]pyridin-7-yl)pyridin-2(1H)-one]",4.9
25,"CN1CCc2oc3cc(-n4ccc(OCc5ccccc5)cc4=O)ccc3c2C1 [Example 27, 4-(Benzyloxy)-1-(2-methyl-1,2,3,4-tetrahydrobenzofuro[3,2-c]pyridin-7-yl)pyridin-2(1H)-one hydrochloride]",8.1
26,"CC(C)N1CCc2oc3cc(-n4ccc(OCc5ccc(F)cn5)cc4=O)ccc3c2C1 [Example 28, 4-((5-Fluoropyridin-2-yl)methoxy)-1-(2-isopropyl-1,2,3,4-tetrahydrobenzofuro[3,2-c]pyridin-7-yl)pyridin-2(1H-one hydrochloride]",9.8
